Our source for the IC50 and MIC values is ChEMBL document CHEMBL4602678, “Identification of Holrhizins E-Q Reveals the Diversity of Nonribosomal Lipopeptides in Paraburkholderia rhizoxinica” (J Nat Prod, 2020).

Where a SMILES comes first, the peptide text is derived from it. The star is where a group is joined. Octanoyl = CCCCCCCC(=O)*; Hexanoyl = CCCCCC(=O)* Some results are limits rather than exact numbers.

The subject of one experiment is SGC-7901. In words: Cytotoxicity against human SGC7901 cells incubated for 2 days by MTT assay. Type of experiment: functional, cell-based. The following applies: SGC-7901, 48 h.
For another experiment, the system named is Escherichia coli. In words: Antimicrobial activity against Escherichia coli ATCC 35218 incubated for 24 hrs by Kirby-Bauer disk diffusion method. Type of experiment: functional. As to conditions: ATCC 35218, 24 h.
In another experiment the test system is Rhizoctonia solani. In words: Antimicrobial activity against Rhizoctonia solani incubated for 24 hrs by Kirby-Bauer disk diffusion method. The class given is functional.
The nature of experiment [1]: Cytotoxicity against human 2B cells incubated for 2 days by MTT assay. The following applies: 48 h. Type of experiment: cell-based.
Another experiment has as its system Pseudomonas aeruginosa. In words: Antimicrobial activity against Pseudomonas aeruginosa […] ATCC 27853 incubated for 24 hrs by Kirby-Bauer disk diffusion method. The class given is functional.
The subject of another experiment is Candida albicans. In words: Antimicrobial activity against Candida albicans incubated for 24 hrs by Kirby-Bauer disk diffusion method. The class given is functional.
The nature of experiment [2]: Cytotoxicity against human Kasumi cells incubated for 2 days by MTT assay. The class given is functional, cell-based. The following applies: 48 h.
For the next experiment, the system named is K562. In words: Cytotoxicity against human K562 cells incubated for 2 days by MTT assay. The class given is functional, cell-based. As to conditions: K562, 48 h.
A further experiment concerns HepG2. In words: Cytotoxicity against human HepG2 cells incubated for 2 days by MTT assay. Type of experiment: functional, cell-based. As to conditions: HepG2, 48 h.
The test system of a further experiment is Staphylococcus aureus. In words: Antimicrobial activity against Staphylococcus aureus ATCC 29213 incubated for 24 hrs by Kirby-Bauer disk diffusion method. Type of experiment: functional. The following applies: ATCC 29213, 24 h.
The test system of the next experiment is MCF7. In words: Cytotoxicity against human MCF7 cells incubated for 2 days by MTT assay. The class given is functional, cell-based. The following applies: MCF7, 48 h.
In a further experiment the test system is Aspergillus fumigatus. In words: Antimicrobial activity against Aspergillus fumigatus incubated for 24 hrs by Kirby-Bauer disk diffusion method. The class given is functional.
In a further experiment the test system is A549. In words: Cytotoxicity against human A549 cells incubated for 2 days by MTT assay. Type of experiment: functional, cell-based. As to conditions: A549, 48 h.
Another experiment deals with Bacillus subtilis. In words: Antimicrobial activity against Bacillus subtilis ATCC 6633 incubated for 24 hrs by Kirby-Bauer disk diffusion method. Type of experiment: functional. As to conditions: ATCC 6633, 24 h.
The next experiment deals with MDA-MB-231. In words: Cytotoxicity against human MDA-MB-231 cells incubated for 2 days by MTT assay. The class given is functional, cell-based. As to conditions: MDA-MB-231, 48 h.
A further experiment relates to HCT-116. In words: Cytotoxicity against human HCT116 cells incubated for 2 days by MTT assay. Type of experiment: functional, cell-based. As to conditions: HCT-116, 48 h.

On to `CCCCCC(=O)N[C@H](C(=O)N[C@@H](Cc1ccccc1)C(=O)N[C@@H](CCC(=O)O)C(=O)N[C@@H](CC(C)C)C(=O)N[C@@H](C)C(=O)N[C@H](C(=O)O)[C@@H](C)CC)C(C)C` (Hexanoyl-VFELAI-OH), for which the IC50 (in the experiment on SGC-7901; in experiment [1]; in experiment [2]; with K562; in the experiment on HepG2; with MCF7) was over 40 µM each time. The IC50 with A549, in the experiment on MDA-MB-231 and in the experiment on HCT-116 was over 40 µM in each case. In addition, the MIC against Escherichia coli, in the experiment with Rhizoctonia solani, against Pseudomonas aeruginosa, against Candida albicans, with Staphylococcus aureus and in the experiment with Aspergillus fumigatus was over 100 µM each time. Moreover, the MIC in the experiment with Bacillus subtilis is over 100 µM.
On to `CCCCCCCC(=O)N[C@H](C(=O)N[C@@H](Cc1ccccc1)C(=O)N[C@@H](CCC(=O)O)C(=O)N[C@H](C(=O)N[C@@H](C)C(=O)N[C@@H](CC(C)C)C(=O)O)[C@@H](C)CC)C(C)C` (Octanoyl-VFEIAL-OH), for which the IC50 (in the experiment on SGC-7901; in [1]; in experiment [2]; with K562; in the experiment on HepG2; in the experiment with MCF7) was over 40 µM throughout. Also, the IC50 with A549, in the experiment with MDA-MB-231 and with HCT-116 was over 40 µM throughout. For the same compound, the MIC against Escherichia coli, in the experiment with Rhizoctonia solani, against Pseudomonas aeruginosa, in the experiment on Candida albicans, in the experiment on Staphylococcus aureus and in the experiment on Aspergillus fumigatus was over 100 µM in each case. The compound further registered an MIC in the experiment on Bacillus subtilis of over 100 µM.
`CCCCCCCC(=O)N[C@H](C(=O)N[C@@H](Cc1ccccc1)C(=O)N[C@@H](CCC(=O)O)C(=O)N[C@@H](CC(C)C)C(=O)N[C@@H](C)C(=O)N[C@@H](CC(C)C)C(=O)O)C(C)C` (Octanoyl-VFELAL-OH): the IC50 (with SGC-7901; in [1]; in experiment [2]; with K562; with HepG2; in the experiment on MCF7) was over 40 µM in each case. In addition, the IC50 in the experiment on A549, in the experiment on MDA-MB-231 and in the experiment with HCT-116 was over 40 µM each time. Also, the MIC against Escherichia coli, against Rhizoctonia solani, in the experiment on Pseudomonas aeruginosa, against Candida albicans, in the experiment with Staphylococcus aureus and against Aspergillus fumigatus was over 100 µM each time. The same compound registered an MIC with Bacillus subtilis of over 100 µM.
For `CCCCCCCC(=O)N[C@H](C(=O)N[C@@H](Cc1ccccc1)C(=O)O)C(C)C` (Octanoyl-Val-Phe-OH), the 50% inhibitory concentration (IC50) (in the experiment on SGC-7901; in experiment [1]; in experiment [2]; with K562; in the experiment with HepG2; in the experiment with MCF7) was over 40 µM throughout. Further, the concentration for half-maximal inhibition (IC50) in the experiment with A549, in the experiment with MDA-MB-231 and in the experiment with HCT-116 was over 40 µM each time. Besides, the MIC in the experiment on Escherichia coli, with Rhizoctonia solani, with Pseudomonas aeruginosa, in the experiment on Candida albicans, against Staphylococcus aureus and with Aspergillus fumigatus was over 100 µM in each case. For the same compound, in the experiment on Bacillus subtilis, the MIC is over 100 µM.
